Test results as given in patent US20260158149A1, “GLYCOSYLATED PRODRUGS” (UNIVERSITEIT LEIDEN, priority 2021, published 2026).
Entries after “also recorded” stand apart in the source; their conditions may differ.

What was measured:
IL-6 = experiment: CAIA model: serum IL-6 by ELISA; type: in vivo, mouse
Experimental: All mice received 1.5 mg of a CAIA-cocktail (Chondrex) intravenously on day 1, followed by intraperitoneal (i.p.) injection of 50 μg LPS (Chondrex) on day 4. Mice were randomly divided into six groups. […] Scores were assigned blinded. […] The blood collection on day 14 was performed after 6 h fasting. On day 15, mice were sacrificed using carbon dioxide, and tissue samples were collected that were immediately frozen in liquid nitrogen. Applied humane endpoints were a total body weight loss of >20% in comparison to the day of LPS treatment or reaching an arthritis score of 45.
IL-6 concentrations were determined by ELISA in the serum collected at days 10 and 15, using the IL-6 mouse ELISA kit (Invitrogen), following the manufacturer's protocol. The insulin concentration was determined in serum collected at day 14, using the Ultra-sensitive mouse insulin ELISA kit (Crystal Chem), following the manufacturer's protocol. Corticosterone concentrations were determined in serum collected at day 15, using the Corticosterone HS (high sensitivity) enzyme immunoassay kit (Immunodiagnostic Systems), following the manufacturer's protocol. Expression levels of various GR target genes were determined by qPCR in the tissue samples (homogenized in TRIzol Reagent (ThermoFisher)) collected at day 15.

[1] = Whole-body cortisol measurement using ELISA; conditions: for whole body cortisol level: 5 dpf larvae treated from 2 hpf, non-wounded; for whole body cortisol level under wounding conditions / whole body cortisol level under wounding conditions with MZ31: 5 dpf larvae, wounded at 2 dpf; for whole body cortisol level under wounding conditions with MZ31: GBA2 inhibitor MZ31
Experimental: Zebrafish embryos at 2 hpf received a chemical treatment, as indicated, with daily refreshment of the solutions, until 96 hpf. Then, the treatments were stopped and embryos were incubated in egg water until 5 dpf to avoid cross-reactivity with the compounds of the cortisol antibody used in the ELISA. Then, the treatments were stopped and replaced with egg water. At 5 dpf, the larvae were collected in an Eppendorf tube and 100 μL of ice-cold phosphate-buffered saline (PBS) was added. The larvae were homogenized using a BulletBlender® for 3 min at 8,000 rpm. Ethyl acetate was added to the homogenate and the supernatant was gathered and vaporized. A volume of 150 μl of 0.2% Bovine serum albumin (Sigma Aldrich) dissolved in phosphate-buffered saline (PBS) was added to the samples and frozen. Whole-body cortisol of the zebrafish larvae was determined by ELISA (Demeditec Diagnostics GmbH, Kiel-Wellsee, Germany), following the manufacturer's instructions. In each experiment, three biological replicates were used for each treatment group, and the colorimetric assay was performed using technical duplicates.

[2] = tested on: collagen antibody-induced arthritis (CAIA)
[3] = tested on: il1b, il6, mmp9, mmp13, il8 mRNA; experiment: qPCR of pro-inflammatory genes after tail wounding; type: in vivo, Zebrafish (Danio rerio)
Description: (§1) For the tail fin amputation experiments, 3 days post fertilization (dpf) larvae from the Tg(mpx:GFP^i114/mpeg1:mCherry^umsF001) line were anesthetized in 0.02% buffered aminobenzoic acid ethyl ester (tricaine) in egg water and placed on a 2% agarose-coated petri dish. The tails were partially amputated with a 1 mm sapphire blade (World Precision Instruments) under a Leica M165C stereomicroscope (Leica Microsystems, Wetzlar, Germany). Chemical treatment (or 0.1% DMSO as vehicle treatment) was started at 2 h before the amputation (pretreatment) and was continued for 4 h after the tail fin amputation (20 larvae per group, unless indicated otherwise), at which time point the larvae were fixed in 4% paraformaldehyde (PFA) overnight at 4° C. and stored at 4° C. until further examination. In some experiments, a 24 h treatment with miglustat, ME656 or MZ31 was started at 2 dpf, and these treatments were continued during the pretreatment and treatment with the other chemicals. For imaging of larvae from the Tg(mpx:GFP^i114/mpeg1:mCherry^umsF001) line, a LeicaMZ16FA fluorescence stereomicroscope with LAS 3.7 software was used. Neutrophils were detected by GFP fluorescence and macrophages by mCherry fluorescence. The neutrophil numbers were determined by blinded manual counting in a pre-determined area. When larvae from gba2^−/− or gr^s357mutant lines were used, neutrophil labeling was performed with the TSA fluorescein detection kit (PerkinElmer) for specific staining of Myeloperoxidase (Mpx)-positive cells, following the manufacturer's instructions.
(§2) For experiments in zebrafish, gene expression was measured using 3 dpf embryos. Groups of 15 larvae were collected in TRIzol reagent (Invitrogen) and mRNA was isolated using the miRNeasy mini kit (Qiagen), according to the manufacturer's instructions. For experiments in HeLa cells, samples were collected from a single well from 6 well plates (80% confluent) in TRIzol reagent and mRNA was isolated using the RNeasy mini kit. Zebrafish and cells samples were treated with DNAse utilizing the DNA-Free™ kit (Ambion). The cDNA synthesis was performed using iScript cDNA synthesis kit (Bio-Rad) using 1 μg of RNA per sample. For qPCR, 10 μM of forward and 10 μM of reverse primer, 12.5 μL of iQ SYBR Green Supermix (Bio-Rad), and 2 μL of cDNA were added to the qPCR reaction mixture. […] The qPCR reactions were performed on a MyiQ-single-color real-time PCR detection system (Bio-Rad) with initial denaturation for 3 min at 95° C. and 40 cycles of 15 s at 95.5° C., 15 s at 60° C., and 30 s at 72° C. Cycle threshold values (Ct values, i.e. the cycle numbers at which a threshold value of the fluorescence intensity was reached) were determined for each sample. The gene expression level for each sample was normalized using the expression of ppial (peptidylprolyl isomerase Ab (cyclophilin A)) for zebrafish samples, and 18S rRNA for human cells. The fold change per sample (compared to the respective control group) was calculated using the ΔΔCt method.

[4] = tested on: neutrophils migrated to the wounded area; experiment: Tail fin amputation assay: neutrophil migration to the wounded area; type: in vivo, Zebrafish (Danio rerio); conditions: for reduction in neutrophil migration in the presence of MZ31: GBA2 inhibitor MZ31; for neutrophil migration in Gba2-deficient larvae: gba2-/- mutant line; for inhibition of neutrophil migration in Gr deficient larvae: gr mutant line (gr-/-); for reduction in neutrophil migration in the presence of miglustat: non-specific GBA inhibitor miglustat
Experimental: Zebrafish (Danio rerio) were maintained and handled according to the guidelines from the Zebrafish Model Organism Database (https://zfin.org/) and in compliance with the directives of the local animal welfare committee of Leiden University. To maintain circadian rhythmicity, adult fish were exposed to a 14 h light and 10 h dark cycle. Fertilization was performed by natural spawning at the beginning of the light period. Fertilized eggs were collected and raised at 28° C. in egg water (60 μg/ml Instant Ocean sea salts and 0.0025% methylene blue). The following zebrafish lines were used in this study: AB/TL wild type, the transgenic lines Tg(mpx:GFP^i114/mpeg1:mCherry^umsF001) (Bernut et al., (2014). Mycobacterium abscessus cording prevents phagocytosis and promotes abscess formation. Proc Natl Acad Sci USA 111, E943-952; Renshaw et al., (2006). A transgenic zebrafish model of neutrophilic inflammation. Blood 108, 3976-3978), and Tg(9xGCRE-HSV.UI123:EGFP)^ia20 (Benato et al., (2014). A living biosensor model to dynamically trace glucocorticoid transcriptional activity during development and adult life in zebrafish. Mol Cell Endocrinol 392, 60-72), and the mutant lines gba2^−/− (Lelieveld et al., (2019). Role of beta-glucosidase 2 in aberrant glycosphingolipid metabolism: model of glucocerebrosidase deficiency in zebrafish. J Lipid Res 60, 1851-1867) and gr^s357 (Ziv et al., (2013). An affective disorder in zebrafish with mutation of the glucocorticoid receptor. Mol Psychiatry 18, 681-691).
as §1

Gr = experiment: Transactivation activity of Gr in Tg(9xGCRE-HSV.UI23:EGFP) reporter line; type: in vivo, Zebrafish (Danio rerio); conditions: 24 h treatment, 3 dpf larvae
Experimental: The Tg(9xGCRE-HSV.UI23:EGFP)^ia20 zebrafish reporter line expresses enhanced green fluorescent protein (EGFP) under the control of a promoter containing an array of nine GREs. To study the effect of chemical treatments on the transactivation activity of the Gr, 15 zebrafish embryos per group (2 dpf) were treated with the indicated compounds for 24 hours. The transactivation activity of Gr induced by the treatments was assessed using a LeicaMZ16FA fluorescence stereomicroscope supported by LAS 3.7 software. The integrated intensity of the EGFP signal in the larvae was determined using ImageJ software.

regenerated tail fin = experiment: Regeneration of the tail fin after wounding; type: in vivo, Zebrafish (Danio rerio); conditions: 5 dpf larvae, wounded at 2 dpf; for tissue regeneration with MZ31: GBA2 inhibitor MZ31
Experimental: (§3) When the regeneration of the tail fins after wounding or the larval body length was used as a readout, chemical treatments of the embryos were started at 2 hours post fertilization (hpf) and continued until 5 dpf. During this period, solutions were refreshed daily. At 5 dpf, larvae were imaged using a LeicaMZ16FA fluorescence stereomicroscope supported by LAS 3.7 software, and the length of the larvae was measured using ImageJ software (15 larvae per treatment group). For the regeneration experiments, tail fins were amputated at 2 dpf and larvae were imaged at 5 dpf (15 larvae per treatment group). The newly grown tissue can be distinguished from the old tissue, enabling precise measurement of the size of the newly grown tissue using ImageJ software.

[5] = Whole-body glucose measurement in larvae; conditions: 5 dpf larvae treated from 2 hpf, non-wounded
Experimental: Zebrafish embryos at 2 hpf received a chemical treatment, as indicated, with daily refreshment of the solutions, until 5 dpf. At 5 dpf, the larvae were collected in an Eppendorf tube and 100 μL of ice-cold glucose buffer was added to each sample. The larvae were homogenized using a BulletBlender® for 3 min at 8,000 rpm. The homogenates were then centrifuged at 4° C. for 8 min at 11000 rpm and the supernatant was stored at −20° C. Whole-body glucose concentrations were determined using a Glucose Colorimetric Assay kit (Cayman Chemical, USA), according to the manufacturer's instructions. In each experiment, three biological replicates were used for each treatment group, and the colorimetric assay was performed using technical duplicates.

Larval body length = type: in vivo, Zebrafish (Danio rerio); conditions: 5 dpf, treatment from 2 hpf
Experimental: as §3

[6] = tested on: Gr target genes fkbp5, pck1 and nfkbiaa; experiment: qPCR of Gr target genes fkbp5, pck1, nfkbiaa; type: in vivo, Zebrafish (Danio rerio)
Experimental: as §2

[7] = Pdn 12.5 or 25 mg/kg i.p. daily from day 7

C[C@]12C=CC(=O)C=C1CC[C@@H]1[C@@H]2[C@@H](O)C[C@@]2(C)[C@H]1CC[C@]2(O)C(=O)CO [Pdn, prednisolone]
serum IL-6 level compared to the vehicle group (IL-6; day 10, all treatment groups): significant reduction of the IL-6 level | serum IL-6 level (IL-6; day 15, all groups except 12.5 mg/kg GbPdn): undetectable | whole body cortisol level [1]: significantly larger decrease | arthritis score at maximal reduction [2, 7]: approximately 0 | day of maximal reduction of arthritis score [2, 7]: 11 days | arthritis scores after treatment initiation ([2]; all dose groups, daily i.p. from day 7): decreased rapidly after treatment initiation | expression of the pro-inflammatory genes il1b, il6 and il8 [3]: these effects were similar to those observed upon Pdn and GPdn treatment | migration of neutrophils towards the wounded area ([4]; wild type larvae, 4 h after tail wounding): inhibited the neutrophil migration

CC(C)=CCC[C@](C)(O[C@@H]1O[C@H](CO[C@@H]2O[C@H](CO)[C@@H](O)[C@H](O)[C@H]2O)[C@@H](O)[C@H](O)[C@H]1O)[C@H]1CC[C@]2(C)[C@@H]1[C@H](O)C[C@@H]1[C@@]3(C)CC[C@H](O[C@@H]4O[C@H](CO)[C@@H](O)[C@H](O)[C@H]4O[C@@H]4O[C@H](CO)[C@@H](O)[C@H](O)[C@H]4O)C(C)(C)[C@@H]3CC[C@]12C [Rb1]
transactivation activity of Gr (GFP signal in GRE:GFP reporter fish line) (Gr): did not cause an increase in the fluorescence intensity | tissue regeneration (length of regenerated tail fin) (regenerated tail fin): neither did they affect; also recorded: minor effect | tissue regeneration with MZ31 (regenerated tail fin): GBA2-dependent | whole body glucose level [5]: did not show any effect on glucose | whole body cortisol level [1]: neither did they affect the cortisol concentration | whole body cortisol level under wounding conditions [1]: minor effect | whole body cortisol level under wounding conditions with MZ31 [1]: GBA2-dependent | wounding-induced increase in expression of il1b, il6 and mmp9 [3]: strongly suppressed | reduction in neutrophil migration in the presence of MZ31 [4]: abolished | neutrophil migration in Gba2-deficient larvae [4]: did not affect the neutrophil migration | inhibition of neutrophil migration in Gr deficient larvae [4]: the inhibition of neutrophil migration was abolished | reduction in neutrophil migration in the presence of miglustat [4]: abolished

C[C@@H]1C[C@H]2[C@@H]3CCC4=CC(=O)C=C[C@]4(C)[C@@]3(F)[C@@H](O)C[C@]2(C)[C@@]1(O)C(=O)CO [Dex, dexamethasone]
larval length (Larval body length): decreased | whole body glucose level [5]: increased the glucose concentration | whole body cortisol level [1]: decreased the cortisol level; also recorded: significantly larger decrease

CC(C)=CCC[C@](C)(O[C@@H]1O[C@H](CO)[C@@H](O)[C@H](O)[C@H]1O)[C@H]1CC[C@]2(C)[C@@H]1[C@H](O)C[C@@H]1[C@@]3(C)CC[C@H](O[C@@H]4O[C@H](CO)[C@@H](O)[C@H](O)[C@H]4O)C(C)(C)[C@@H]3CC[C@]12C [F2]
transactivation activity of Gr (GFP signal in GRE:GFP reporter fish line) (Gr): did not cause an increase in the fluorescence intensity | tissue regeneration (length of regenerated tail fin) (regenerated tail fin): neither did they affect; also recorded: minor effect | tissue regeneration with MZ31 (regenerated tail fin): GBA2-dependent | whole body glucose level [5]: did not show any effect on glucose | whole body cortisol level [1]: neither did they affect the cortisol concentration | whole body cortisol level under wounding conditions [1]: minor effect | whole body cortisol level under wounding conditions with MZ31 [1]: GBA2-dependent | wounding-induced increase in expression of il1b, il6 and mmp9 [3]: strongly suppressed | reduction in neutrophil migration in the presence of MZ31 [4]: abolished | neutrophil migration in Gba2-deficient larvae [4]: did not affect the neutrophil migration | inhibition of neutrophil migration in Gr deficient larvae [4]: the inhibition of neutrophil migration was abolished | reduction in neutrophil migration in the presence of miglustat [4]: abolished

CC(C)=CCCC(C)(O)[C@H]1CC[C@]2(C)[C@@H]1[C@H](O)C[C@@H]1[C@@]3(C)CC[C@H](O)C(C)(C)[C@@H]3CC[C@]12C (stereo in doubt) [PPD, Protopanaxadiol]
larval length (Larval body length): did decrease | transactivation activity of Gr (GFP signal in GRE:GFP reporter fish line) (Gr): did not cause an increase in the fluorescence intensity | tissue regeneration (length of regenerated tail fin) (regenerated tail fin): did decrease | whole body glucose level [5]: did not affect the glucose level | expression of Gr target genes fkbp5, pck1 and nfkbiaa [6]: did not increase the expression | whole body cortisol level [1]: did decrease the cortisol concentration | wounding-induced increase in expression of il1b, il6 and mmp9 [3]: strongly suppressed | reduction in neutrophil migration in the presence of MZ31 [4]: did not affect the action of PPD | inhibition of neutrophil migration in Gr deficient larvae [4]: the inhibition of neutrophil migration was abolished | reduction in neutrophil migration in the presence of miglustat [4]: did not affect the action of PPD
